Measured values reported in PubChem BioAssay AID256 (DTP/NCI, 2004).
Where “and” joins values, the source holds several entries; their conditions need not be identical. Equal entries are not always repeated. Inconclusive results and toxic doses are left out.

Tested on: CD2F1 mice, L1210 leukemia ip, survival T/C
Assay: NCI In Vivo Anticancer Drug Screen. Data for tumor model L1210 Leukemia (intraperitoneal) in CD2F1 (CDF1) mice
Settings: higher = longer survival
In short: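 Implant tumor; dose compound or vehicle; measure endpoint in both groups; report treated divided by control.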

[1] = endpoint: mean survival time, dose: 100.0 mg/kg/injection, schedule: Q04DX003 (ip), vehicle: saline
[2] = endpoint: mean survival time, dose: 200.0 mg/kg/injection, schedule: Q04DX003 (ip), vehicle: saline
[3] = endpoint: mean survival time, dose: 400.0 mg/kg/injection, schedule: Q04DX003 (ip), vehicle: saline
[4] = endpoint: mean survival time, dose: 50.0 mg/kg/injection, schedule: Q01DX009 (ip), vehicle: saline with Tween-80
[5] = endpoint: mean survival time, dose: 100.0 mg/kg/injection, schedule: Q01DX009 (ip), vehicle: saline with Tween-80
[6] = endpoint: mean survival time, dose: 200.0 mg/kg/injection, schedule: Q01DX009 (ip), vehicle: saline with Tween-80
[7] = endpoint: mean survival time, dose: 400.0 mg/kg/injection, schedule: Q01DX009 (ip), vehicle: saline with Tween-80
[8] = endpoint: mean survival time, dose: 100.0 mg/kg/injection, schedule: Q04DX002 (ip), vehicle: saline with Tween-80
[9] = endpoint: mean survival time, dose: 200.0 mg/kg/injection, schedule: Q04DX002 (ip), vehicle: saline with Tween-80
[10] = endpoint: mean survival time, dose: 100.0 mg/kg/injection, schedule: Q04DX003 (ip), vehicle: saline with Tween-80
[11] = endpoint: mean survival time, dose: 200.0 mg/kg/injection, schedule: Q04DX003 (ip), vehicle: saline with Tween-80
[12] = endpoint: mean survival time, dose: 400.0 mg/kg/injection, schedule: Q04DX003 (ip), vehicle: saline with Tween-80
[13] = endpoint: mean survival time, dose: 12.5 mg/kg/injection, schedule: Q01DX009 (ip), vehicle: saline with Tween-80
[14] = endpoint: mean survival time, dose: 25.0 mg/kg/injection, schedule: Q01DX009 (ip), vehicle: saline with Tween-80
[15] = endpoint: mean survival time, dose: 50.0 mg/kg/injection, schedule: Q04DX002 (ip), vehicle: saline with Tween-80
[16] = endpoint: mean survival time, dose: 25.0 mg/kg/injection, schedule: Q01DX009 (ip), vehicle: Klucel (hydroxypropylcellulose) (HPC)
[17] = endpoint: mean survival time, dose: 50.0 mg/kg/injection, schedule: Q01DX009 (ip), vehicle: Klucel (hydroxypropylcellulose) (HPC)
[18] = endpoint: mean survival time, dose: 100.0 mg/kg/injection, schedule: Q01DX001 (ip), vehicle: saline with Tween-80
[19] = endpoint: mean survival time, dose: 1.56 mg/kg/injection, schedule: Q01DX009 (ip), vehicle: Klucel (hydroxypropylcellulose) (HPC)
[20] = endpoint: mean survival time, dose: 3.12 mg/kg/injection, schedule: Q01DX009 (ip), vehicle: Klucel (hydroxypropylcellulose) (HPC)
[21] = endpoint: mean survival time, dose: 6.25 mg/kg/injection, schedule: Q01DX009 (ip), vehicle: Klucel (hydroxypropylcellulose) (HPC)
[22] = endpoint: mean survival time, dose: 12.5 mg/kg/injection, schedule: Q01DX009 (ip), vehicle: Klucel (hydroxypropylcellulose) (HPC)

## Cc1ccccc1S(=O)(=O)N/N=C/c1ccsc1
endpoint: median survival time, dose: 50.0 mg/kg/injection, schedule: Q04DX002 (ip), vehicle: saline with Tween-80
  T/C: 90 % of control
endpoint: median survival time, dose: 100.0 mg/kg/injection, schedule: Q04DX002 (ip), vehicle: saline with Tween-80
  T/C: 90 % of control
endpoint: median survival time, dose: 200.0 mg/kg/injection, schedule: Q04DX002 (ip), vehicle: saline with Tween-80
  T/C: 100 % of control
endpoint: median survival time, dose: 400.0 mg/kg/injection, schedule: Q04DX002 (ip), vehicle: saline with Tween-80
  T/C: 90 % of control

## COC(=O)C(NC(C)=O)C(O)Cl (centres undefined)
[1]
  T/C: 102 % of control
[2]
  T/C: 100 % of control
[3]
  T/C: 98 % of control

## CN(C)c1ccc(/C=N/NC(=O)CNC(=O)Nc2cccc(C(F)(F)F)c2)c(Cl)c1
[4]
  T/C: 88 % of control
[5]
  T/C: 88 % of control
[6]
  T/C: 88 % of control

## COc1ccc(C(C#N)Nc2ccccc2)cc1 (centres undefined)
[5]
  T/C: 106 % of control
endpoint: mean survival time, dose: 100.0 mg/kg/injection, schedule: Q04DX003 (ip), vehicle: saline sonified
  T/C: 97 % of control
[6]
  T/C: 104 % of control
endpoint: mean survival time, dose: 200.0 mg/kg/injection, schedule: Q04DX003 (ip), vehicle: saline sonified
  T/C: 89 % of control
[7]
  T/C: 103 % of control
endpoint: mean survival time, dose: 400.0 mg/kg/injection, schedule: Q04DX003 (ip), vehicle: saline sonified
  T/C: 103 % of control

## N#C/C(=C\C1CCC2OCOC2C1)C1CCC([N+](=O)[O-])CC1 (centres undefined)
[8]
  T/C: 97 % of control
[9]
  T/C: 87 % of control
endpoint: mean survival time, dose: 400.0 mg/kg/injection, schedule: Q04DX002 (ip), vehicle: saline with Tween-80
  T/C: 91 % of control

## CCOC(=O)C1=C(N)SC(=O)C1
[10]
  T/C: 100 % of control
[11]
  T/C: 104 % of control
[12]
  T/C: 95 % of control

## CC12CCC(C1)C(C)(C)C2(O)c1ccccc1 (centres undefined)
[10]
  T/C: 92 % of control

## C[C@@H]1CC2=CC(=O)CC[C@]2(C)[C@H]2CC[C@]3(C)[C@@H](O)CC[C@H]3[C@H]12
[10]
  T/C: 98 % of control
[11]
  T/C: 119 % of control
[12]
  T/C: 98 % of control

## Cc1ncc([N+](=O)[O-])n1CCSC(N)=O
[13]
  T/C: 103 % of control
[14]
  T/C: 96 % of control
[4]
  T/C: 102 % of control
[5]
  T/C: 100 % of control
[6]
  T/C: 100 % of control
[7]
  T/C: 100 % of control

## Nc1c2c(nn1-c1ccccc1)C(=O)N(CCc1ccccc1)C2
[12]
  T/C: 90 % of control

## CCOC(=O)c1ccc(N(CCO)CCO)cc1
endpoint: mean survival time, dose: 75.0 mg/kg/injection, schedule: Q01DX001 (ip), vehicle: other
  T/C: 94 % of control
endpoint: mean survival time, dose: 150.0 mg/kg/injection, schedule: Q01DX001 (ip), vehicle: other
  T/C: 97 % of control
endpoint: mean survival time, dose: 300.0 mg/kg/injection, schedule: Q01DX001 (ip), vehicle: other
  T/C: 102 % of control

## Cc1ccc(/C(=N\Nc2ccc([N+](=O)[O-])cc2[N+](=O)[O-])C2CC2c2ccccc2)cc1 (centres undefined)
[15]
  T/C: 91 % of control
[8]
  T/C: 105 % of control
[9]
  T/C: 91 % of control

## CC(/C=C/C1OC(=O)C=CC1C)=C\C(C)C/C=C/C(C)=C/C(C)C(=O)C(C)C(O)C(C)C/C(C)=C/C(=O)O (centres undefined)
endpoint: median survival time, dose: 9.0 micrograms/kg/injection, schedule: Q01DX009 (ip), vehicle: saline + alcohol
  T/C: 106 % of control
endpoint: median survival time, dose: 15.0 micrograms/kg/injection, schedule: Q01DX009 (ip), vehicle: saline + alcohol
  T/C: 119 % of control
endpoint: median survival time, dose: 18.0 micrograms/kg/injection, schedule: Q01DX005 (ip), vehicle: alcohol
  T/C: 110 % of control
endpoint: median survival time, dose: 18.0 micrograms/kg/injection, schedule: Q01DX005 (ip), vehicle: saline + alcohol
  T/C: 106 % of control
endpoint: median survival time, dose: 25.0 micrograms/kg/injection, schedule: Q01DX009 (ip), vehicle: saline + alcohol
  T/C: 117 % of control
endpoint: median survival time, dose: 30.0 micrograms/kg/injection, schedule: Q01DX005 (ip), vehicle: alcohol
  T/C: 110 % of control
endpoint: median survival time, dose: 30.0 micrograms/kg/injection, schedule: Q01DX005 (ip), vehicle: saline + alcohol
  T/C: 107 % of control
endpoint: median survival time, dose: 50.0 micrograms/kg/injection, schedule: Q01DX005 (ip), vehicle: alcohol
  T/C: 115 % of control
endpoint: median survival time, dose: 50.0 micrograms/kg/injection, schedule: Q01DX005 (ip), vehicle: saline + alcohol
  T/C: 108 % of control
endpoint: median survival time, dose: 83.33 micrograms/kg/injection, schedule: Q01DX005 (ip), vehicle: alcohol
  T/C: 115 % of control
endpoint: median survival time, dose: 83.33 micrograms/kg/injection, schedule: Q01DX005 (ip), vehicle: saline + alcohol
  T/C: 116 % of control
endpoint: median survival time, dose: 138.89 micrograms/kg/injection, schedule: Q01DX005 (ip), vehicle: alcohol
  T/C: 122 % of control
endpoint: median survival time, dose: 138.89 micrograms/kg/injection, schedule: Q01DX005 (ip), vehicle: saline + alcohol
  T/C: 111 % of control

## CC(=O)O[C@@H]1C[C@H](C)CC[C@H]1C(C)C
[10]
  T/C: 98 % of control
[11]
  T/C: 89 % of control

## Cc1ccc(S(=O)(=O)N/N=C/c2ccncc2)cc1
[16]
  T/C: 104 % of control
[17]
  T/C: 105 % of control
endpoint: mean survival time, dose: 100.0 mg/kg/injection, schedule: Q01DX009 (ip), vehicle: Klucel (hydroxypropylcellulose) (HPC)
  T/C: 98 % of control
endpoint: mean survival time, dose: 200.0 mg/kg/injection, schedule: Q01DX009 (ip), vehicle: Klucel (hydroxypropylcellulose) (HPC)
  T/C: 98 % of control

## C=CC1C2C=CC(CC2)C1O (centres undefined)
[10]
  T/C: 98 % of control
[11]
  T/C: 101 % of control
[12]
  T/C: 104 % of control

## CC(C)(C)NC(=O)CCC(CC(=O)NC(C)(C)C)OCc1ccccc1 (centres undefined)
[4]
  T/C: 100 % of control
[5]
  T/C: 104 % of control
[10]
  T/C: 101 % of control
[6]
  T/C: 102 % of control
[11]
  T/C: 106 % of control
[7]
  T/C: 93 % of control
[12]
  T/C: 93 % of control

## O=C(O)C(Cl)(Br)C(Cl)c1ccccc1 (centres undefined)
[10]
  T/C: 100 % of control
[11]
  T/C: 102 % of control
[12]
  T/C: 103 % of control

## CC(C)(SSC(C)(C)C(N)C(=O)O)C(N)C(=O)O (centres undefined)
[18]
  T/C: 108 % of control
[5]
  T/C: 94 % of control
endpoint: mean survival time, dose: 200.0 mg/kg/injection, schedule: Q01DX001 (ip), vehicle: saline with Tween-80
  T/C: 101 % of control
[6]
  T/C: 93 % of control
endpoint: mean survival time, dose: 400.0 mg/kg/injection, schedule: Q01DX001 (ip), vehicle: saline with Tween-80
  T/C: 109 % of control
[7]
  T/C: 90 % of control

## CCCCc1ccc(-n2c(C)c(COC(=O)NC)c(COC(=O)NC)c2C)cc1
[19]
  T/C: 113 % of control and 112 % of control
[20]
  T/C: 117 % of control and 110 % of control
[21]
  T/C: 117 % of control and 110 % of control
[22]
  T/C: 124 % of control and 103 % of control
[16]
  T/C: 120 % of control
[17]
  T/C: 122 % of control and 109 % of control

## CN(C)CCCN1c2ccccc2C(C)(C)c2ccccc21
[13]
  T/C: 105 % of control
[14]
  T/C: 103 % of control
[4]
  T/C: 97 % of control
[10]
  T/C: 86 % of control
[12]
  T/C: 114 % of control

## c1nc(SSc2ncnc3nc[nH]c23)c2[nH]cnc2n1
[13]
  T/C: 186 % of control
[14]
  T/C: 151 % of control
endpoint: mean survival time, dose: 30.0 mg/kg/injection, schedule: Q01DX001 (ip), vehicle: saline with Tween-80
  T/C: 150 % of control
endpoint: mean survival time, dose: 66.0 mg/kg/injection, schedule: Q01DX001 (ip), vehicle: saline with Tween-80
  T/C: 157 % of control
[18]
  T/C: 155 % of control
endpoint: mean survival time, dose: 150.0 mg/kg/injection, schedule: Q01DX001 (ip), vehicle: saline with Tween-80
  T/C: 162 % of control

## COC12C(COC(=O)NCCO)C3=C(C(=O)C(C)=C(N)C3=O)N1CC1NC12 (centres undefined)
[19]
  T/C: 112 % of control
[20]
  T/C: 114 % of control and 106 % of control
[21]
  T/C: 115 % of control and 120 % of control
[22]
  T/C: 115 % of control
[17]
  T/C: 114 % of control
endpoint: mean survival time, dose: 222.0 mg/kg/injection, schedule: Q01DX001 (ip), vehicle: carboxymethylcellulose (CMC)
  T/C: 89 % of control

## CC1(C)CCC2(C(=O)O)CCC3(C)C(=CCC4C5(C)CC(O)C(OC6OC(CO)C(O)C(O)C6O)C(C)(CO)C5C(O)CC43C)C2C1 (centres undefined)
[15]
  T/C: 102 % of control

## CCCC(C)C1(CC)NC(C)(C)CC(C)O1 (centres undefined)
[10]
  T/C: 103 % of control
[11]
  T/C: 87 % of control

## CC(N)C(=O)O (centres undefined)
endpoint: mean survival time, dose: 100.0 mg/kg/injection, schedule: Q01DX001 (ip), vehicle: saline
  T/C: 106 % of control
endpoint: mean survival time, dose: 200.0 mg/kg/injection, schedule: Q01DX001 (ip), vehicle: saline
  T/C: 112 % of control
endpoint: mean survival time, dose: 400.0 mg/kg/injection, schedule: Q01DX001 (ip), vehicle: saline
  T/C: 98 % of control

## CCN(CC)C(=O)c1ccncc1
[1]
  T/C: 101 % of control
[2]
  T/C: 104 % of control
[3]
  T/C: 101 % of control
